Literature values as cited in US20250364101A1, “Dabigatran Dosing” (Closed Loop Medicine Ltd, priority 2023, published 2025).
Like-named read-outs stand apart in the source and are kept apart here.

What was measured:
[1] = not given; remark: listed apart in the source
[2] = not given; remark: listed apart in the source

**Q.** With `CCCCCCOC(=O)NC(=N)c1ccc(NCc2nc3cc(C(=O)N(CCC(=O)OCC)c4ccccn4)ccc3n2C)cc1` [Dabigatran etexilate] as the compound, how does the “risk of intracranial bleeds” value (compared with adjusted-dose warfarin) read?
**A.** small reduction

**Q.** And the “outcome compared with warfarin” value (patients with nonvalvular AF)?
**A.** superior to warfarin

**Q.** For `[H]/N=C(/N)c1ccc(NCc2nc3cc(C(=O)N(CCC(=O)O)c4ccccn4)ccc3n2C)cc1` [dabigatran], which “accumulation of the drug” value ([1]; daily doses of approximately 150-300 mg) is on record?
**A.** approximately 1.7 fold

**Q.** And the “elimination via the kidney as share of total clearance” value ([1]; in vivo)?
**A.** 80%

**Q.** What about the “remainder going into the faeces” value ([1]; oral) of the same compound?
**A.** ~90%

**Q.** What about the “relationship between maximal plasma level and dose administered” value ([1]; single dose) of the same compound?
**A.** linear relationship

**Q.** And the “effect of food on total absorption” value ([1]; with food)?
**A.** does not affect

**Q.** What about the “Change in Drug Level Exposure (AUC), increase” value ([2]; Amiodarone) of the same compound?
**A.** 12% increase

**Q.** And the “Change in Drug Level Exposure (AUC)” value ([2]; CrCl = 30, relative to median CrCl of 69)?
**A.** 1.8 fold

**Q.** And the “Change in Drug Level Exposure (AUC)” value ([2]; CrCl = 50, relative to median CrCl of 69)?
**A.** 1.3 fold

**Q.** What about the “Change in Drug Level Exposure (AUC), decrease” value ([2]; PPIs) of the same compound?
**A.** ~13% decrease

**Q.** What about the “Change in Drug Level Exposure (AUC), increase” value ([2]; South Asians compared to other ethnicities) of the same compound?
**A.** ~26% increase in South Asians compared to other ethnicities

**Q.** What about the “Change in Drug Level Exposure (AUC), increase” value ([2]; Verapamil) of the same compound?
**A.** 23% increase

**Q.** And the “increase in distribution volume (Vd)” value ([2]; above 80 kg)?
**A.** 0.8 % per kg

**Q.** What about the “Change in activity: bleeding” value ([2]; coadministration of Asprin, clopidogrel) of the same compound?
**A.** Coadministration will increase chance of bleeding

**Q.** What about the “Change in Drug Level Exposure (AUC), increase” value ([2]; females compared to men) of the same compound?
**A.** ~9% increase in females compared to men

**Q.** What about the “effect of low weight on Cmax” value ([2]; low weight) of the same compound?
**A.** will increase

**Q.** What about the “Change in Drug Level Exposure (AUC), increase per year of age” value ([2]; older compared to 72 yr) of the same compound?
**A.** 0.41% increase per year older compared to 72 yr % per year

**Q.** What about the “Change in Drug Level Exposure (AUC), increase” value ([2]; patients with HF) of the same compound?
**A.** ~7% increase in patients with HF
